Source: patent US12433876B2, “Septin inhibitors for treatment of cancers” (UNIVERSITY OF ROCHESTER, priority 2019, dated 2025)

Tests used:
ECC-1 cells = experiment: MTS cell viability, ECC-1; format: cell-based; conditions: ECC-1, 48 hours
Experimental: (§1) Cell lines, Culture, and Reagents. Cells were maintained in either DMEM (SKOV-3, KLE, OVCAR-3, OVCAR8-C5 and IGROV-1) or RPMI-1640 (ECC-1 and HCH-1), supplemented with 10% fetal calf serum (or 20% for OVCAR-3), penicillin (100 units/mL), and streptomycin (100 μg/mL) at 37° C. with 5% CO2 in a humidified incubator. Antibodies were purchased from Abcam (septin-2; ab179436) and Cell Signaling Technology; ERK (9102), p-ERK (4370), -actin (3700), u-Tubulin (2144), EGFR (4267) and HER2 (4290). FCF was purchased from Abcam. All other chemicals were from Sigma Aldrich. Synthesis of Derivaties. […] The reaction was monitored using thin-layer chromatography plates with DCM-MeOH or pure ethyl acetate as eluent. Spots were monitored in a UV chamber. The reaction mixture, upon completion of the reaction, was poured into wet ice mixture and triturated, then the separated solid was filtered by vacuum. The product was washed with hexane, followed by diethyl ether, and was dried under vacuum. The compounds were characterized by spectrophotometric techniques. Quantitative Real-Time PCR. The indicated cell lines were transfected with siRNA targeting septin-2 or non-targeting control siRNA (Santa Cruz Biotechnology: sc-37007 or sc-40936) using Lipofectamine 3000 (Invitrogen). […] Quantitative real-time PCR was conducted using QuantStudio 12 K Flex Real-Time PCR System (ABI) and the Taqman Gene Expression Assay (ABI) consisting of the FAM-labeled probes as follows: SEPT2 (Hs01565417_ml); WFDC2 (Hs00899484_ml); TBP (Hs00427620_ml) or B2M (Hs00187842_ml), which was used as reference for normalization. […] Cell viability, proliferation, and cellular apoptosis were measured using the MTS (Promega), BrdU cell proliferation (Cell Signaling Technology), and Caspase-Glo 3/7 apoptosis detection (Promega) assays, following the respective manufacturer's recommendations with suitable modification. […] Survival curves between septin high and low population and their statistical significance were analyzed using GraphPad Prism software (Mantel-Cox test). […]

HER2 = experiment: Western blot of HER2 expression in ECC-1 and HCH-1 cells; format: cell-based; conditions: UR214-7 33 μM, UR214-9 33 μM, FCF 300 μM, 24 hours
Experimental: as §1

Row | SMILES | concentration inhibiting viability (ECC-1 cells; MTS (FIG. 2B)) | HER2 expression (HER2) | viability (ECC-1 cells; MTS, lower dose ranges)
1 | O=C(Nc1cc(Cl)nc(Cl)c1)Nc1cccc(SC(F)(F)F)c1F [UR214-9] | around 33 μM | inhibition of HER2 expression | 
2 | O=C(Nc1ccccc1)Nc1ccnc(Cl)c1 [FCF, N-(2-chloro-4-pyridyl)-N′-phenylurea, reference compound] |  | inhibition of HER2 expression | lacked activity
